The nature of data set [1]: pEEG deep learning drug class classifier. Type of data set: in vivo. As to conditions: classifier trained with a set that did not include the drug, FIG. 25.
From the text: Briefly, the network may be based on a bidirectional Long Short-Term Memory (LSTM, 32 hidden units) layer, two fully connected layers (“elu and “softmax” activations), batch normalization and dropout layers. The model may be trained using cross-entropy loss function and “adam” optimizer, for at least 30-50 epochs. The last layer of the model may be a dense layer, which may provide probabilities for more than a dozen drug classes.
In some embodiments, to improve the robustness of the predictive model, independent implementations of a general model architecture may be built by randomly initializing the weights for the RNN. Final predictions may be derived from the model with highest accuracy, or from the average such as the median or mean results from all trained models. To check the accuracy of the resulting model system, different cross validation approaches may be used such as a n-samples-out, or n-doses-out, and/or a whole-drug-out, where an n-samples subset, an n-doses subset, and/or a whole drug, respectively, may be systematically removed from the training dataset, and the rest of the drugs may be used for training a new model. The excluded data may then be used for model validation as a test set. Model prediction may be done at a sample level, so as to get a prediction for a given drug-dose. […]
The test system of data set [2] is Q175 heterozygous (HET) mice model of Huntington Disease. The experiment in a line: DBSA query with Q175 HET target signature. The format is in vivo. The conditions noted are these: Q175 HET at 6 months vs WT. From the text:
In some embodiments, illustrative computing devices of present disclosure can be programmed with one or more techniques of the present disclosure to screen active reference compounds against an animal model of a neurodegenerative disease. As an example, in an application of DBSA, the Q175 heterozygous (HET) mice model of Huntington Disease was used to generate a target signature. Male and female cohorts of the Q175 HET model mice at 6 months were compared against the associated wild type (WT) controls. The DBSA Target signature model for the Q175 HET at 6 months is, for example, illustrated in FIG. 56. The target signature was used to query a database containing list signatures for reference compounds profiled at multiple doses.
(§1) Of interest was the identification of the atypical antidepressant tianeptine, currently not used for the treatment of HD in the clinic. […] A control group of WT mice was treated equally with saline. […] The beneficial effect of tianeptine was quantified using DRFA, which transforms the original subject feature profile to a non-redundant, decorrelated ranked 2D features space. The non-redundant decorrelated ranked features space was used to calculate the discrimination between control (WT treated with saline) and disease group (Q175 HET group treated with saline). The disease group (Q175 HET) treated with tianeptine was then projected onto this 2D space and its proximity to the control group was calculated.

The nature of data set [3]: eye temperature by automated thermographic system of behavioral platform. The format is in vivo, mice. The conditions noted are these: various doses, FIG. 39. From the text:
In some embodiments, with regard to image calibration, in an experimental session, actual Peltier temperatures may be logged and saved along with the thermal camera video. The logged Peltier temperatures in Celsius can be paired to the optical density (OD) levels measured at the two Peltier ROIs in each corresponding frame, so that a linear calibration curve can be used to convert the OD of measured eye ROIs to degrees Celsius.
In some embodiments, the subject body, such as a mouse, can be segmented based on the optical density distribution on each frame. The contour of the mouse can be masked by finding the largest eight-connected objects in the binarized image as shown in FIG. 36. […] The size of the eye region relative to the mask and shape properties such as ‘Eccentricity’ (ratio of the distance between the foci of the ellipse and its major axis length) and ‘Solidity’ (proportion of the pixels in the convex hull that are also in the region, computed as Area/ConvexArea) can be measured to filter out false positives, when those parameters may be outside of the range learned from manually annotated ground truth examples.
In some embodiments, with regard to feature extraction, the average OD of automatically detected eye ROIs can be converted to Celsius based on the calibration curve. […]

Data set [4] is described as follows: SmartCube / behavioral platform total activity and Class signature. The format is in vivo. From the text: In some embodiments, one or more techniques described herein may quantify at least one activity score that may be quantified based on a discriminability score between at least two datasets, where the discriminability score may refer to an accuracy of a classifier, or a quantity derived therefrom. At least one dataset is a control group. In some embodiments, one or more techniques described herein may quantify at least one similarity value, which is the complement of the at least one activity value, where at least two groups are compared.
In some embodiments, one or more techniques described herein may calculate the activity score between the two groups using, for example, without limitation, a binary machine learning classifier. In some embodiments, a discriminability score of the at least two groups, as assessed by the classifier, may be used as the at least one activity score, representing how phenotypically different the two groups are. For example, the at least two groups may refer to a treatment group and a vehicle group associated with the at least two datasets.
In some embodiments, one or more techniques described herein may utilize a machine learning algorithm to perform the following steps: obtaining a plurality of subsamples, where a number, k, of iterations of the plurality of subsamples of a larger group match sample size n of a smaller group. […]

Data set [5] can be described thus: SmartCube diagonal index (DD) similarity ranking and psychedelic profile. As to conditions: ranked among 90 reference drugs. Type of data set: in vivo.
From the text: The similarity score for each of the dose-dose pairs of the T and R drugs was computed and used to calculate the diagonal index for each T-R drug pair or DDTiRj. For each Ti drug, the Rj drugs were then ranked by the corresponding DDTiRj.
A short description of data set [6]: psychedelic-related behaviors (HTR, ESH, ELO) in behavioral platform videos. The format is in vivo, mice. From the text:
FIG. 71 illustrates a response curve for R-(−)-4-iodo-2,5-dimethoxyamphetamine (DOI), showing anxiolytic, another therapeutic signal, and the head twitch response (HTR) in accordance with one or more embodiments of the present disclosure. FIG. 71 represents a signature of DOI in a behavioral platform, where multiple classes can be collapsed into a few classes of interest. For example, multiple classes can be collapsed into five classes of interest for simplicity.
In some embodiments, the first step may be to generate a collection of ground-truth examples by manually identifying features corresponding to behaviors of interest (e.g., using a labelling software or platform to add labels identifying such features). Each experimental session can be recorded in terms of precise start and end frame which can set the predefined duration of the experimental session. For manual identification purposes, the system may use a top camera view, at a 50% slower viewing speed, although other angles from the other cameras and other sensors such as piezoelectric and thermal sensors may also be used, and the resulting data integrated. Class analysis (e.g., FIG. 71), on the other hand, may include data acquired from all sensors of a behavioral platform.
The disclosed embodiments can extract behavioral features corresponding to exemplary behaviors. The disclosed embodiments are not limited to any particular implementation of these features. In some embodiments, a behavioral feature can be implemented as a time-stamped indication that a behavior occurred at that time, or a Boolean value in a time series indicating the occurrence of a behavior. In some embodiments, a training dataset including observational data and corresponding, manually identified features can be used to train the machine learning classifier.
FIG. 76 illustrates graphs illustrating a quantification of psychedelic-related behaviors detected in behavioral platform videos: ear scratch with hind paw (ESH), head twitch response (HTR), and elongation-contraction (ELO) for LSD and DOI at two doses in accordance with one or more embodiments of the present disclosure. FIG. 76 indicates a number of occurrences of HTRs, ESH, and ELOs, in behavioral platform videos of mice treated with DOI, LSD or vehicle, in triplicates, were recorded during the periods of rest for a total of 12 minutes for each subject.

Data set [7] has as its system Q175 HET mice. The experiment in a line: treatment of Q175 HET mice, recovery quantified using DRFA. Type of data set: in vivo. The conditions noted are these: 20 mg/kg, FIG. 62. On the procedure:
as §1

Data set [8] can be described thus: DBSA query with scopolamine target signature. Type of data set: in vivo. From the text: In some embodiments, illustrative computing devices of the present disclosure can be programmed with one or more techniques of the present disclosure to identify a novel cognitive enhancer compound by querying a large library of compounds profiled in by a behavioral platform. This example is based on a hypothesis that compounds with a drug-induced behavioral data profile that is reversed to that of scopolamine, which impairs cognition, are potentially cognitive enhancers. Other ways to impair cognition, such as other drugs or genetic manipulations, can be used to generate similar hypotheses.
The target signature was used to query a library of list signatures associated with active library and reference compounds to rank the compounds by their capacity to reverse the behavioral response to scopolamine.

[9] abbreviates: periods of rest, total 12 minutes per subject, vs vehicle, two doses, FIG. 76.

In the case of `CC(NC(C)(C)C)C(=O)c1cccc(Cl)c1` (centres unmarked) [bupropion], the “therapeutic class signature by pEEG classifier” value in data set [1] is listed as “more stimulant profile”. The “DBSA prediction against Q175 HET target signature” value (“DBSA prediction” for short) in data set [2] is listed as “top predictions”.

In the case of `CN(C)CCC=C1c2ccccc2CCc2ccccc21` [Amitriptyline], the “therapeutic class signature by pEEG classifier” value in data set [1] was “clean antidepressant signal”.

Consider `CNC(C)Cc1ccc2c(c1)OCO2` (centres unmarked) [MDMA, 3,4-methylenedioxymethamphetamine], for which the eye temperature entry in data set [3] was “dose-dependent increase of eye temperature”.

With `CCN(CC)C(=O)[C@@H]1C=C2c3cccc4[nH]cc(c34)C[C@H]2N(C)C1` [LSD, lysergic acid diethylamide], in data set [4] (calculated against vehicle control, activity rescaled 0% to 100%, threshold 70%, FIG. 64), the “total activity as a function of dose” value was “only the 3 mg/kg and 5 mg/kg being different from vehicle in a statistically significant manner”. In addition, the “rank of diagonal index DDTT (similarity of a second run to a previous run of the same drug)” value in data set [5] is “very high”. Further, in data set [6] (setting [9]), the “number of occurrences of ear scratches (ESH)” value is recorded as “did not result in occurrences of ear scratches” and the “number of occurrences of elongation-contraction (ELO)” value was “significant increase in the number of ELOs”.

On to `CN1c2ccccc2C(NCCCCCCC(=O)O)c2ccc(Cl)cc2S1(=O)=O` (centres unmarked) [tianeptine], for which the “DBSA prediction” value in data set [2] is given as “novel prediction”. The “rescue of behavioral phenotype of Q175 HET mice” value in data set [7] (acutely) and in data set [7] (chronically (4-week regimen)) was “significantly rescued the behavioral phenotype” in each case.

As for `COc1cc(C[C@@H](C)N)c(OC)cc1I` [DOI, R-(−)-4-iodo-2,5-dimethoxyamphetamine], the “class signal of behavioral platform classifier” value in data set [4] (FIG. 71, classes collapsed into five classes) is “predominant anxiolytic therapeutic signal”. The “head twitch response (HTR) dose-response” value in data set [6] (FIG. 71, two doses) is recorded as “high at both doses”. For the same molecule, in data set [6] (setting [9]), the “number of occurrences of HTRs” value was “most robust increase” and the “number of occurrences of ear scratches (ESH)” value was “most robust increase”.

On to `NC(=O)C[S+]([O-])C(c1ccccc1)c1ccccc1` (centres unmarked) [modafinil], for which the “DBSA prediction” value in data set [2] is “top predictions”.

In the case of `CN1C(=O)CN=C(c2ccccc2)c2cc(Cl)ccc21` [diazepam], the “rank of diagonal index DDTT (similarity of a second run to a previous run of the same drug)” value in data set [5] is on record as “third out of 90”.

Regarding `CN1[C@@H]2C[C@@H](OC(=O)[C@H](CO)c3ccccc3)C[C@H]1[C@@H]1O[C@@H]12` [scopolamine], the “DBSA similarity to scopolamine target signature” value in data set [8] (FIG. 59, at a different dose than the one used for the DBSA model) is on record as “among the most similar compounds”.

`COc1cc2c(cc1OC)C(=O)C(CC1CCN(Cc3ccccc3)CC1)C2` (centres unmarked) [donepezil]: the “DBSA reverse list signature to scopolamine target signature” value in data set [8] (FIG. 60) is recorded as “among the top reverse list signature predictions”.

For the molecule `COC(=O)C(c1ccccc1)C1CCCCN1` (centres unmarked) [methylphenidate], the “DBSA prediction” value in data set [2] is “top predictions”.

Values taken from patent US20250062040A1, “COMPUTER-BASED SYSTEMS FOR ACQUIRING AND ANALYZING OBS[…] DATA” (priority 2021, published 2025).
